Experimental data published in paper PMC9959918 (2023).

Legend:
[1] = test system: CPG-tel26 (DNA, G4) TTAGGGTTAGGGTTAGGGTTAGGGTT; assay: G4-CPG affinity assay, UV; conditions: 50 mM KCl, 10% DMSO, 10% ethanol, 60 μM compound, error ±2%
[2] = test system: CPG-c-myc (DNA, G4) TGGGGAGGGTGGGGAGGGTGGGGAAGGTGGGGA; assay: G4-CPG affinity assay, UV; conditions: 50 mM KCl, 10% DMSO, 10% ethanol, 60 μM compound, error ±2%
[3] = test system: CPG-ds27 (DNA, hairpin) CGCGAATTCGCGTTTCGCGAATTCGCG; assay: G4-CPG affinity assay, UV; conditions: 50 mM KCl, 10% DMSO, 10% ethanol, 60 μM compound, error ±2%
[4] = test system: tel26 (DNA, G4) TTAGGGTTAGGGTTAGGGTTAGGGTT; assay: CD melting, 290 nm; conditions: 5 mM KCl, 5 mM KH2PO4; 5% DMSO, pH 7; 2 μM DNA, 20 μM compound (10 equiv.); Tm ± 1
[5] = test system: Pu22T14T23 (Pu22) (DNA, G4) TGAGGGTGGGTAGGGTGGGTAA; assay: CD melting, 265 nm; conditions: 5 mM KCl, 5 mM KH2PO4; 5% DMSO, pH 7; 2 μM DNA, 20 μM compound (10 equiv.); Tm ± 1
[6] = test system: ds12 (Dickerson dodecamer) (DNA, duplex) CGCGAATTCGCG; assay: CD melting, 253 nm; conditions: 5 mM KCl, 5 mM KH2PO4; 5% DMSO, pH 7; 2 μM DNA, 20 μM compound (10 equiv.); Tm ± 1
[7] = test system: tel26 (DNA, G4) TTAGGGTTAGGGTTAGGGTTAGGGTT; assay: fluorescence titration, 2 μM ligand, equivalent-sites fit; conditions: 5 mM KCl, 5 mM KH2PO4; 5% DMSO, pH 7, 20 °C
[8] = test system: Pu22T14T23 (Pu22) (DNA, G4) TGAGGGTGGGTAGGGTGGGTAA; assay: as above; conditions: 5 mM KCl, 5 mM KH2PO4; 5% DMSO, pH 7, 20 °C
[9] = test system: ds12 (Dickerson dodecamer) (DNA, duplex) CGCGAATTCGCG; assay: as above; conditions: 5 mM KCl, 5 mM KH2PO4; 5% DMSO, pH 7, 20 °C

## COc1cc2c(cc1OC)[C@@H]1C(=O)c3ccc4c(c3O[C@@H]1CO2)C=CC(C)(C)O4
[1]; nude CPG 0%
  Bound Ligand: 0%
[2]; nude CPG 0%
  Bound Ligand: 0%
[3]; nude CPG 0%
  Bound Ligand: 0%

## COc1cc2c(cc1OC)-c1c(OC)c(OC)cc3c1[C@H](C2)N(C)CC3
[1]; nude CPG 0%
  Bound Ligand: 2%
[2]; nude CPG 0%
  Bound Ligand: 1%
[3]; nude CPG 0%
  Bound Ligand: 0%

## CC1(C)C=Cc2c(ccc3c2O[C@@H]2COc4cc5c(cc4[C@@H]2C3=O)OCO5)O1
[1]; nude CPG 8%
  Bound Ligand: 8%
[2]; nude CPG 8%
  Bound Ligand: 8%
[3]; nude CPG 8%
  Bound Ligand: 8%

## COc1ccc2c(c1OC)CN1CCc3cc4c(cc3[C@@H]1C2)OCO4
[3]; nude CPG 21%
  Bound Ligand: 4%

## COc1cc2c(cc1OC)-c1c3c(cc4c1[C@H](C2)N(C)CC4)OCO3
[4]
  ΔTm: +3 °C
[5]
  ΔTm: +5 °C
[6]
  ΔTm: +1 °C
[1]; nude CPG 0%
  Bound Ligand: 67%
[2]; nude CPG 0%
  Bound Ligand: 47%
[3]; nude CPG 0%
  Bound Ligand: 30%
[7]
  Kb: (2.8 ± 1.2) × 10^6 M^−1
[8]
  Kb: (0.8 ± 0.5) × 10^6 M^−1
[9]
  Kb: (3.2 ± 0.4) × 10^5 M^−1
